One molecule from patent publication US11312690B2, “Compounds, compositions, methods for treating diseases, and methods for preparing compounds” (UNIVERSITY OF LOUISVILLE RESEARCH FOUNDATION, INC., priority 2015, dated 2022) can be followed below.

Molecules are shown by their SMILES. pIC50: −log10 of the molar value.

Series [1] in a line: Preliminary in vivo toxicity. Further details: species or system mice. The note with it: 25 mg/kg, ip injection over 2 weeks, data not shown.
The test system of another series is Mia-PaCa-2 cells. Briefly: Mia-PaCa-2 sub-cutaneous xenograft, primary tumor growth and lung metastasis. In kind it is in vivo, NRG mice. The note with it: 10 mg/kg ip every other day for 2 weeks, scored one week later. Here is the method:
Some compounds of Formula (I) suppress pancreatic cancer cell metastasis—FIG. 6. NRG mice were sub-cutaneously inoculated with PBS (“no tumor cells”) or 5×10^6 Ras driven Mia-PaCa-2 cells. Mice were allowed to recover for 1 week and then injected (ip) with PBS/DMSO carrier or 10 mg/kg of compound I-1 every other day for 2 weeks. One week later, mice were scored for primary tumor growth and lung metastasis.

The test system of a further series is Ras/Raf/MAPK pathway. Briefly: MAPK pathway activation by phosphoERK antibody in cells with endogenous hyper-activated Ras. In kind it is cell-based. The note with it: 10 μM. The method, then:
Specific Inhibition of endogenous Ras/RalGEF signaling. FIG. 4. Specific suppression of Ral activation by some compounds of Formula (I). Cells with endogenous hyper-activated Ras were assayed for endogenous Ral activation in the presence or absence of inhibitor (10 μM) using a Cell Biolabs (SanDiego Calif.) kit. Compound I-1 was dissolved in DMSO; DMSO serves as the carrier negative control. IP is immunoprecipitation. IB is immunoblot. Cell lysates were then assayed for the levels of MAPK pathway activation using a phosphoERK antibody. They were the same. Actin is a loading control.
RalGEFs drive Ral into the active, GTP bound form so it can bind its effector RalBP1. […] Commercially available kits available from several vendors use RalBP1 attached to beads as an affinity reagent specific to the active form of Ral. By measuring the level of activated Ral and comparing it to the total levels of Ral, it is possible to measure the state of endogenous Ral activation. We assayed untransfected cells containing endogenous hyper-activated Ras for the effects of compound I-1 treatment on endogenous levels of active Ral levels.

Another series concerns Panc-1. Briefly: Soft agar colony formation. It counts as cell-based, human. The method, then:
FIG. 1. Effects of some compounds of Formula (I) on RalGEF inhibitor on soft agar growth and normal growth in 2D of pancreatic carcinoma cell lines. In FIGS. 1A and 1B, Panc-1 (ATCC® CRL-1469™) and MiaPaCa-2 (ATCC® CRL-1420™) mutant Ras containing pancreatic tumor cell lines were plated in soft agar in the presence of 10 μM or 0.9 μM of compound I-1 and scored for the formation of colonies. In FIGS. 1C and 1D, compound I-1 was then tested for the ability to inhibit cell growth on the same cell lines under normal 2D growth conditions on plastic. “0” is the carrier. Cells were seeded at the same density and scored after two weeks in culture.
Human pancreatic tumor cell lines MiaPaca-2 and Panc-1 contain activated K-Ras and were used in the initial screen to identify compound I-1. Soft agar colony formation remains an established in vitro assay to predict tumorigenicity and was used to predict tumorigenicity for compound I-1.

Series [2] concerns the target T1, interaction of K-Ras with RalGDS (Homo sapiens, UniProt Q12967).
T1 construct: expressed in transfected cells; host or cells: HEK-293
T1 sequence (Q12967 1-914): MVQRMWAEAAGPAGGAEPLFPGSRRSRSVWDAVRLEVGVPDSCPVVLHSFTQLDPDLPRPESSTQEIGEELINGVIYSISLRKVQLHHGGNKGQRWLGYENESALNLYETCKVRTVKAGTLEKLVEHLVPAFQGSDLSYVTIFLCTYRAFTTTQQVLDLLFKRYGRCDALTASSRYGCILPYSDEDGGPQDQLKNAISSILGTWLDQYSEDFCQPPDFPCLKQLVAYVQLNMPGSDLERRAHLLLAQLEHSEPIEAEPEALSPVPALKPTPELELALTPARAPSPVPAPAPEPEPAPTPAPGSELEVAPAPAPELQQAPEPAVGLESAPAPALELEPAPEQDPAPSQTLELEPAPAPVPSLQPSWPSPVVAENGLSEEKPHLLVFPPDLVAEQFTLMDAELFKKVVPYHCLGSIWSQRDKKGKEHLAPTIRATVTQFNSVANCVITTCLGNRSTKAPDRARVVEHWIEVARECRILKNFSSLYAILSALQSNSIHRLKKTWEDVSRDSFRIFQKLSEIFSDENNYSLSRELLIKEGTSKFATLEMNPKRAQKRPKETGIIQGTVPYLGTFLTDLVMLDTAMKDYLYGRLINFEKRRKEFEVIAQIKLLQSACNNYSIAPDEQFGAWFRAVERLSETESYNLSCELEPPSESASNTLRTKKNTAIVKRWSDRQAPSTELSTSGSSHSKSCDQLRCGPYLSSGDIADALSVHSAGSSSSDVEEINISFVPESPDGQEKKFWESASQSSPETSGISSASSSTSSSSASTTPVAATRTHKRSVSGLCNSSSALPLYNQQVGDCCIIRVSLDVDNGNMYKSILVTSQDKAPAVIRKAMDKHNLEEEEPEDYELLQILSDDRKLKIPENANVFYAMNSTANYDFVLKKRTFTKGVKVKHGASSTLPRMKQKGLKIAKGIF
The series can be described thus: Ras/RalGEF binding, immunoprecipitation and immunoblot from co-transfected HEK-293 cells. The note with it: 10 μM, HA K-Ras 12v and GFP-RalGDS, IP/IB, FIG. 3A. For orientation: In western blotting, separated proteins are transferred to a membrane and probed.

With `COc1cccc(CNc2nc(CN(C)Cc3cccc(OC)c3)nc3sc(C)c(C)c23)c1` [Compound I-1], the “deleterious effect on mice (behavior, weight)” value in series [1] is “no obvious deleterious effect”. Also, the “effects on the primary tumor” value with Mia-PaCa-2 cells is given as “not obvious”. In the series on Mia-PaCa-2 cells (FIG. 6), the lung metastasis entry is “metastasis was inhibited”. In addition, in the series with Ras/Raf/MAPK pathway, the “Ras/Raf/MAPK pathway activation (levels of phospho ERK)” value is “no inhibition of the Ras/Raf/MAPK pathway activation was detected”. For the same molecule, the “ability of the cells to grow in soft agar” value with Panc-1 (10 μM, FIG. 1A) is recorded as “almost completely blocked”. For the same molecule, the “tumorigenic phenotype in vitro” value in the series with Panc-1 (FIG. 1A) is “blocks the tumorigenic phenotype in vitro at low μM or sub μM levels”. The pIC50 in the series on Panc-1 (Homo sapiens, PANC-1, soft agar, titration experiments, data not shown, read-out: IC50 (concentration that inhibits 50% of colony formation)) was more than 6.00. The “stable association of Ras and RalGDS” value in series [2] is “inhibited the stable association of Ras and RalGDS”.
